The supplement of paper PMC10307832

Legend:
Assay in all cases: relative viability (nuclei count vs DMSO), 5 days (fraction); higher = more cells survive
NCI-H2347 = system: NCI-H2347
Procedure, shortened: (§1)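 Five library-drug doses in √10 steps were combined with a fixed anchor-drug dose, or a single drug was given alone, by pin tool to lung cancer cell lines in 1536-well plates the day after seeding. Nuclei were stained and counted after 5 days. Relative viability is the nuclei count in treated wells over that in vehicle wells, taken as the median of duplicate plates.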

EPLC-272H = system: EPLC-272H
Procedure, shortened: as §1

H3255 = system: H3255
Procedure, shortened: as §1

NCI-H650 = system: NCI-H650
Procedure, shortened: as §1

201T = system: 201T
Procedure, shortened: as §1

COR-L 105 = system: COR-L 105
Procedure, shortened: as §1

NCI-H2087 = system: NCI-H2087
Procedure, shortened: as §1

NCI-H2126 = system: NCI-H2126
Procedure, shortened: as §1

NCI-H2405 = system: NCI-H2405
Procedure, shortened: as §1

HCC-78 = system: HCC-78
Procedure, shortened: as §1

LC-2-ad = system: LC-2-ad
Procedure, shortened: as §1

NCI-H1666 = system: NCI-H1666
Procedure, shortened: as §1

LCLC-97TM1 = system: LCLC-97TM1
Procedure, shortened: as §1

NCI-H23 = system: NCI-H23
Procedure, shortened: as §1

NCI-H322M = system: NCI-H322M
Procedure, shortened: as §1

HCC-827 = system: HCC-827
Procedure, shortened: as §1

NCI-H1915 = system: NCI-H1915
Procedure, shortened: as §1

NCI-H520 = system: NCI-H520
Procedure, shortened: as §1

NCI-H661 = system: NCI-H661
Procedure, shortened: as §1

PC-14 = system: PC-14
Procedure, shortened: as §1

RERF-LC-KJ = system: RERF-LC-KJ
Procedure, shortened: as §1

NCI-H647 = system: NCI-H647
Procedure, shortened: as §1

Which relative viability (NCI-H2347; first compound 0.01 µM) does the source give for `CC(C)Oc1cc(Nc2nc(N[C@@H](C)c3ccc(F)cn3)ncc2Cl)n[nH]1` [AZ23] + CS(=O)(=O)CCNCc1ccc(-c2ccc3ncnc(Nc4ccc(OCc5cccc(F)c5)c(Cl)c4)c3c2)o1 [Lapatinib] (partner 2 µM) here?
The relative viability was 1.05.

And the relative viability (NCI-H2347; first compound 0.03162 µM)?
Its relative viability is 1.02.

What about the relative viability (NCI-H2347; first compound 0.3162 µM) of the same compound?
The relative viability was 1.02.

What about the relative viability (EPLC-272H; first compound 0.01 µM) of the same compound?
Its relative viability is 0.885.

What about the relative viability (EPLC-272H; first compound 0.03162 µM) of the same compound?
Its relative viability is 1.16.

And the relative viability (H3255; first compound 0.01 µM)?
The relative viability was 0.203.

What about the relative viability (H3255; first compound 0.03162 µM) of the same compound?
The relative viability was 0.252.

What about the relative viability (H3255; first compound 0.3162 µM) of the same compound?
The relative viability was 0.279.

And the relative viability (NCI-H650; first compound 0.01 µM)?
Its relative viability is 0.649.

What about the relative viability (NCI-H650; first compound 0.03162 µM) of the same compound?
The relative viability was 1.19.

What about the relative viability (NCI-H650; first compound 0.3162 µM) of the same compound?
Its relative viability is 0.849.

And the relative viability (201T; first compound 0.01 µM)?
The relative viability was 1.03.

What about the relative viability (201T; first compound 0.03162 µM) of the same compound?
Its relative viability is 1.

And the relative viability (201T; first compound 0.3162 µM)?
The relative viability was 1.1.

And the relative viability (COR-L 105; first compound 0.01 µM)?
The relative viability was 0.35.

And the relative viability (COR-L 105; first compound 0.03162 µM)?
The relative viability was 0.382.

What about the relative viability (COR-L 105; first compound 0.3162 µM) of the same compound?
Its relative viability is 0.373.

And the relative viability (NCI-H2087; first compound 0.01 µM)?
The relative viability was 1.17.

What about the relative viability (NCI-H2087; first compound 0.03162 µM) of the same compound?
The relative viability was 1.17.

And the relative viability (NCI-H2087; first compound 0.3162 µM)?
Its relative viability is 1.05.

And the relative viability (NCI-H2126; first compound 0.01 µM)?
Its relative viability is 0.838.

And the relative viability (NCI-H2126; first compound 0.03162 µM)?
The relative viability was 0.821.

And the relative viability (NCI-H2126; first compound 0.3162 µM)?
The relative viability was 0.842.

What about the relative viability (NCI-H2405; first compound 0.01 µM) of the same compound?
The relative viability was 1.

What about the relative viability (NCI-H2405; first compound 0.03162 µM) of the same compound?
The relative viability was 1.16.

What about the relative viability (NCI-H2405; first compound 0.3162 µM) of the same compound?
Its relative viability is 0.943.

And the relative viability (HCC-78; first compound 0.01 µM)?
Its relative viability is 0.469.

What about the relative viability (HCC-78; first compound 0.03162 µM) of the same compound?
Its relative viability is 1.

What about the relative viability (HCC-78; first compound 0.3162 µM) of the same compound?
The relative viability was 0.456.

And the relative viability (LC-2-ad; first compound 0.01 µM)?
The relative viability was 1.32.

And the relative viability (LC-2-ad; first compound 0.03162 µM)?
The relative viability was 0.997.

What about the relative viability (LC-2-ad; first compound 0.3162 µM) of the same compound?
The relative viability was 0.912.

And the relative viability (NCI-H1666; first compound 0.01 µM)?
The relative viability was 0.747.

And the relative viability (NCI-H1666; first compound 0.03162 µM)?
Its relative viability is 0.565.

And the relative viability (NCI-H1666; first compound 0.3162 µM)?
Its relative viability is 0.591.

And the relative viability (LCLC-97TM1; first compound 0.01 µM)?
Its relative viability is 0.881.

And the relative viability (LCLC-97TM1; first compound 0.03162 µM)?
Its relative viability is 0.842.

And the relative viability (LCLC-97TM1; first compound 0.3162 µM)?
The relative viability was 1.23.

And the relative viability (NCI-H23; first compound 0.03162 µM)?
The relative viability was 1.23.

What about the relative viability (NCI-H23; first compound 0.3162 µM) of the same compound?
Its relative viability is 1.07.

What about the relative viability (NCI-H322M; first compound 0.01 µM) of the same compound?
Its relative viability is 0.575.

And the relative viability (NCI-H322M; first compound 0.03162 µM)?
The relative viability was 0.621.

And the relative viability (NCI-H322M; first compound 0.3162 µM)?
Its relative viability is 0.614.

And the relative viability (HCC-827; first compound 0.01 µM)?
Its relative viability is 0.205.

What about the relative viability (HCC-827; first compound 0.03162 µM) of the same compound?
The relative viability was 0.172.

And the relative viability (HCC-827; first compound 0.3162 µM)?
The relative viability was 0.21.

What about the relative viability (NCI-H1915; first compound 0.01 µM) of the same compound?
Its relative viability is 1.12.

What about the relative viability (NCI-H1915; first compound 0.03162 µM) of the same compound?
The relative viability was 0.972.

What about the relative viability (NCI-H1915; first compound 0.3162 µM) of the same compound?
Its relative viability is 1.01.

And the relative viability (NCI-H520; first compound 0.01 µM)?
The relative viability was 0.842.

What about the relative viability (NCI-H520; first compound 0.03162 µM) of the same compound?
The relative viability was 0.964.

And the relative viability (NCI-H520; first compound 0.3162 µM)?
The relative viability was 0.8.

And the relative viability (NCI-H661; first compound 0.01 µM)?
Its relative viability is 0.432.

And the relative viability (NCI-H661; first compound 0.03162 µM)?
Its relative viability is 0.633.

And the relative viability (NCI-H661; first compound 0.3162 µM)?
The relative viability was 0.545.

And the relative viability (PC-14; first compound 0.01 µM)?
The relative viability was 0.351.

What about the relative viability (PC-14; first compound 0.03162 µM) of the same compound?
The relative viability was 0.404.

What about the relative viability (PC-14; first compound 0.3162 µM) of the same compound?
Its relative viability is 0.348.

What about the relative viability (RERF-LC-KJ; first compound 0.01 µM) of the same compound?
The relative viability was 0.965.

And the relative viability (RERF-LC-KJ; first compound 0.03162 µM)?
The relative viability was 1.15.

And the relative viability (RERF-LC-KJ; first compound 0.3162 µM)?
Its relative viability is 0.881.

And the relative viability (NCI-H647; first compound 0.01 µM)?
Its relative viability is 1.71.

What about the relative viability (NCI-H647; first compound 0.03162 µM) of the same compound?
Its relative viability is 1.27.

And the relative viability (NCI-H647; first compound 0.3162 µM)?
Its relative viability is 1.34.
